Laboratory results: patent US20260048040A1, “MTA-COOPERATIVE PRMT5 INHIBITORS FOR USE IN THE TREATMENT OF CANCER” (ASTRAZENECA AB, priority 2022, published 2026)
Like-named read-outs stand apart in the source and are kept apart here.

Columns and labels:
L540 cells = assay: Proliferation assay, L540 Hodgkin Lymphoma cells (CellTiter Glo); assay type: cell-based; details: Homo sapiens
Method: (§1) For the Hodgkin Lymphoma cell lines L428, L540, L1236, HDLM2 and KM-H2 (purchased from DSMZ, http://www.dsmz.de): Assay Ready Plates were prepared by adding compounds to 384-well plates (Corning #3712) using Echo Liquid Handler. On day 0, 1200 cells/well of L428, L540, or KMH2 cells in 60 μl of growth media (RPMI1640+10% FBS+1% L-Glu+1% P/S) were dispensed into the Assay Ready Plates, 10 μM as final top concentration, with 1:3 dilution, and 10 doses total. The same volume was also dispensed into 1 empty plate for Day 0 control plate. 30 μl/well of CellTiter Glo reagent (Promega #7573) was added into Day 0 plate, incubate at room temperature for 20 min in dark, Measure luminescence on plate reader Tecan M200 using 100 ms integration time, Oms attenuation and settle times. The assay plates were incubated for 7 days in incubator with 37° C., 90% humidity, 5% CO2. Luminescence was measured as Day 0 control plate. IC50 was calculated using GraphPad Prism 8 with Nonlinear regression (curve fit) analysis.

L1236 cells = assay: Proliferation assay, L1236 Hodgkin Lymphoma cells (CellTiter Glo); assay type: cell-based
Method: as §1

[1] = system: MTAP knock out (KO) HCT116 cells; assay: Proliferation assay, HCT116 MTAP knock out cells (Alamar Blue); assay type: cell-based; details: Homo sapiens, HCT-116; HCT116, MTAP status KO, MTAP mRNA level low; average values from two or more experiments
Method: (§2) For the HCT116 isogenic cell line (the parental model purchased from ATCC, the MTAP KO clone generated in-house using CRISPR technology): Cells were harvested to a density of 400 cells per well (McCoys 5A+10% FCS+1% Glutamax), 40 μl/well seeded into 384-well plates (Greiner, Kremsmunster, Austria; 781090) using a Multidrop Combi. For Day 0 plates immediately add 4 μl Alamar Blue reagent (Thermo; DAL1100) using a multidrop combi and incubate for 3 h at 37° C., 5% CO2. Day 0 cell plates were measured using Envision plate reader with fluorescence excitation wavelength of 540-570 nm (peak excitation is 570 nm), fluorescence emission at 580-610 nm (peak emission is 585 nm). Test compounds were added using an Echo 555 and placed in incubator at 37° C., 5% CO2 and incubated for 4 more days. […], add 4 μl Alamar Blue reagent using a Multidrop Combi and incubate for 3 h at 37° C., 5% CO2. Day 4 cell plates were measured using EnVision plate reader with fluorescence excitation wavelength of 540-570 nm, fluorescence emission at 580-610 nm. The rate of proliferation (IC50 values) was determined using Genedata screener software by assessing the total cell number from the Envision plate reader for Day 0 and Day 4 plates.

HDLM2 cells = assay: Proliferation assay, HDLM2 Hodgkin Lymphoma cells (CellTiter Glo); assay type: cell-based; details: Homo sapiens
Method: as §1
Alternatively, for HDLM2 (purchased from DSMZ): Cells were grown as […] cells in growth media (phenol red free RPMI+10% FCS+2 mM glutamine). Cells were seeded into 96-well clear-bottomed black tissue-culture treated plates at 1000 cells/well in 90 μl growth media and placed in an incubator at 37° C., 5% CO2. Compound was obtained in solution from the liquid bank at a concentration of 10 mM in DMSO then half-log serial dilutions performed in DMSO to make ×1000 fold stock solutions. Concentrations were then diluted 1 in 10 in DMSO followed by 1 in 10 in growth media to give an addition plate at x^10 final concentration in 10% DMSO. 10 μl compound was then added to 90 μl cell (1 in 10 dilution) to give a concentration range of 0.1 nM to 10 μM in 1% DMSO. CellTiter Glo readings were taken at the point of dosing and at 6 days. […] Read luminescence on Envision F (ultrasensitive luminescence 96-well protocol with 384 well aperture). IC50 was calculated using GraphPad Prism 8 with Nonlinear regression (curve fit) analysis.

L428 cells = assay: Proliferation assay, L428 Hodgkin Lymphoma cells (CellTiter Glo); assay type: cell-based; details: Homo sapiens
Method: as §1

[2] = system: wild type (wt) HCT116 cells; assay: Proliferation assay, HCT116 wild type cells (Alamar Blue); assay type: cell-based; details: Homo sapiens, HCT-116; HCT116, MTAP status wt, MTAP mRNA level high; average values from two or more experiments
Method: as §2

[3] = Tolerability / body weight in L540 HL xenograft model; assay type: in vivo, Mouse (Mus Musculus); details: all doses tested, PO, 21 days
Method: (§3) Control animals were dosed with vehicle (5% v/v DMSO/20% v/v Kolliphor HS15/75% v/v purified water (pH 3.0-3.2)) PO, and vehicle and Compound C treated animals were dosed according to Table 6. Dosing was initiated 1 day upon selection and randomization. On day 21 of dosing, all animals from each received the last dose in the morning. Mice were necropsied 6 h later and flash frozen tumors were collected for PD analysis.
(§4) • Tumors were measured twice weekly by caliper, and the volumes of tumors were calculated using the formula: Volume (mm^3)=(Tumor Length)×(Tumor width)×(Tumor width)/2 • Relative tumor volume (RTV) was calculated using the formula: RTV for day X=(Tumour volume on day X)/(Tumour volume on day 0) • The anti-cancer effect of Compound C was expressed as percent of tumor growth inhibition (TGI) calculated on last day of the study using the formula: • Percentage TGI on day X for treatment group=(((Geomean RTV Vehicle day X)−(Geomean RTV Treatment group day X))/((Geomean RTV Vehicle on day X)−1)×100 • Animals were weighted daily for the dosing phase and twice weekly for all other phases. Percentage of body weight change was calculated using the formula: Percentage body weight change on day X=(((Body weight day X)−(Body weight day of select)×100))
Tumor volumes were plotted as geometric means with SEM. Percentage of body weight change was plotted as means with SEM. […]

[4] = system: MTAP silenced L540 HL xenograft; assay: Tumor growth inhibition in L540 HL xenograft model; assay type: in vivo, Mouse (Mus Musculus); details: for TGI (%): 21 days of dosing, TGI measured day 21 (end of treatment), NOD/SCID mice
Method: (§5) This study was performed to evaluate tumor growth inhibition and pharmacodynamic changes following treatment with the MTA synergistic PRMT5 inhibitor Compound C in the MTAP silenced L540 HL xenograft model. Three doses of Compound C (Dose Level 1, Dose Level 2 and Dose Level 3) were tested. Pharmacodynamic changes were assessed by western blot for a decrease in SDMA (marker of target engagement) following treatment with Compound C.
Xenografts were established by subcutaneous (SC) injection of 5×10^e6 cells suspended in 0.1 mL of PBS into the right front flank of 6-to 8-week-old animals. Tumors were allowed to reach 100-200 mm^3 before randomization. Tumors were measured by calliper and the volumes of tumors were calculated using the following formula: Volume (mm3)=(Tumor Length)×(Tumor width)×(Tumor width)/2 Tumor length (the longest tumor dimension); Tumor width (the longest tumor dimension perpendicular to length).
Animals were randomized into groups based on the size of the tumor. Randomization was performed based on “Matched distribution” method (StudyDirector™ software, version 3.1.399.19). The date of randomization is denoted as Day 0. There were no animal substitutions.
as §3, §4
Tumor volumes were plotted as geometric means with SEM. Percentage of body weight change was plotted as means with SEM. Significant p-values for TGI relative to vehicle treated controls (relative tumor volumes) at the last day of treatment, were obtained from a Mann-Whitney one-tailed test, and calculated by GraphPad Prism 8.4.3

[5] = system: SDMA (marker of target engagement); assay: Pharmacodynamic analysis: SDMA western blot in L540 xenograft tumors; assay type: in vivo, Mouse (Mus Musculus); details: tumors collected 6 h after last dose on day 21, western blot normalized to vinculin
Method: as §5, §3
To determine levels of protein of interest in tumor samples, snap frozen tumor fragments at the end of the PD study were used and protein extracted by adding 600-1000 μl lysis buffer for small and large tumors, respectively. […] Lysates were transferred to a deepwell plate, and protein in the supernatant measured using BCA normalisation method (Thermofisher, #23225). […] The membranes were washed three times for 15 minutes each in 20 ml of TBST, and signal was detected using chemiluminescent SuperSignal West Dura extended duration substrate (Thermofisher, #34075) and quantified using Syngene software. The 30 kDa molecular weight band of PRMT5's substrate, SDMA, was quantified using Syngene software. The 110 kDa molecular weight band of vinculin was also quantified. […]
Primary analysis was carried out using Excel, where raw data was firstly normalised to vinculin, secondly to the geomean of vehicle control and then multiplied by 100. […] Significant p-values, if any, obtained from the ANOVA test, were quantified using GraphPad Prism 8.4.3.

[6] = L-540, L540, MTAP status wt, MTAP mRNA level low, average values from two or more experiments, read-out: IC50, proliferation
[7] = L-1236, L1236, MTAP status wt, MTAP mRNA level low, average values from two or more experiments, read-out: IC50, proliferation
[8] = HDLM-2, HDLM2, MTAP status wt, MTAP mRNA level low, average values from two or more experiments, read-out: IC50, proliferation
[9] = L-428, L428, MTAP status wt, MTAP mRNA level high, average values from two or more experiments, read-out: IC50, proliferation

IC50 (L540 cells; [6]) | IC50 (L1236 cells; [7]) | IC50 [1] | IC50 (HDLM2 cells; [8]) | IC50 (L428 cells; [9]) | IC50 [2] | Structure (SMILES) | Body weight loss during the treatment period compared to vehicle-treated group [3] | Tolerability [3] | TGI (%) ([4]; Dose Level 1, PO) | TGI (%) ([4]; Dose Level 2, PO) | TGI (%) ([4]; Dose Level 3, PO) | Inhibition of tumour growth in vivo (in words) ([4]; Dose Levels 1-3, PO, L540 HL xenograft) | Percentage Inhibition of SDMA ([5]; Dose Level 1, PO) | Percentage Inhibition of SDMA ([5]; Dose Level 2, PO) | Percentage Inhibition of SDMA ([5]; Dose Level 3, PO) | IC50 (L540 cells; L-540, read-out: IC50, proliferation) | IC50 (L1236 cells; L-1236, read-out: IC50, proliferation) | IC50 (HDLM2 cells; HDLM-2, read-out: IC50, proliferation) | IC50 (L428 cells; L-428, read-out: IC50, proliferation)
247 nM | 67 nM | 158 nM | 39 nM | 2520 nM | > 20000 nM | Nc1nc2cc(CN3C(=O)c4cc(F)ccc4[C@]34CCN(Cc3ccc(F)cc3)C4=O)[nH]c2cc1F [Compound A, (S)-2-((5-Amino-6-fluoro-1H-pyrrolo[3,2-b]pyridin-2-yl)methyl)-5-fluoro-1′-(4-fluorobenzyl)spiro[isoindoline-1,3′-pyrrolidine]-2′,3-dione] |  |  |  |  |  |  |  |  |  |  |  |  | 
157 nM | 14 nM | 74 nM | 93 nM | 583 nM | 75 nM | CC(=O)N1CCC(Nc2cc(C(=O)NC[C@H](O)CN3CCc4ccccc4C3)ncn2)CC1 [Compound B, reference compound] |  |  |  |  |  |  |  |  |  |  |  |  | 

Structure (SMILES) | IC50 (L540 cells; [6]) | IC50 (L1236 cells; [7]) | IC50 [1] | IC50 (HDLM2 cells; [8]) | IC50 (L428 cells; [9]) | IC50 [2] | Body weight loss during the treatment period compared to vehicle-treated group [3] | Tolerability [3] | TGI (%) ([4]; Dose Level 1, PO) | TGI (%) ([4]; Dose Level 2, PO) | TGI (%) ([4]; Dose Level 3, PO) | Inhibition of tumour growth in vivo (in words) ([4]; Dose Levels 1-3, PO, L540 HL xenograft) | Percentage Inhibition of SDMA ([5]; Dose Level 1, PO) | Percentage Inhibition of SDMA ([5]; Dose Level 2, PO) | Percentage Inhibition of SDMA ([5]; Dose Level 3, PO) | IC50 (L540 cells; L-540, read-out: IC50, proliferation) | IC50 (L1236 cells; L-1236, read-out: IC50, proliferation) | IC50 (HDLM2 cells; HDLM-2, read-out: IC50, proliferation) | IC50 (L428 cells; L-428, read-out: IC50, proliferation)
CC#CCN1CC[C@@]2(C1=O)c1ccc(F)cc1C(=O)N2Cc1cc2nc(N)c(F)cc2[nH]1 [Compound C, (S)-2-((5-Amino-6-fluoro-1H-pyrrolo[3,2-b]pyridin-2-yl)methyl)-1′-(but-2-yn-1-yl)-5-fluorospiro[isoindoline-1,3′-pyrrolidine]-2′,3-dione] |  |  | 170 nM |  |  | 8540 nM | no significant body weight loss | well tolerated | 22% | 52% | 93% | dose-dependent efficacy | 83.9% | 97.6% | 99.1% | 252 nM | 77 nM | 827 nM | 4640 nM
